In patent publication US20170247693A1 (priority 2016, published 2017):
Where two headings read alike, the source gives them in different places.

Tests used:
[1] = tested on: uveal melanoma cells (Mel270, OMM2.3, OMM2.5, OMM1, 92.1); format: cell-based
caspase-3 [2] = format: cell-based; details: FLC4 infected with vACE-NT; normoxia; 72 h after administering DOX
caspase-3 [3] = format: cell-based, human; details: HepG2 infected with vACE-NT; normoxia; 72 h after administering DOX
HepG2 tumors = format: in vivo, SCID mice

COc1cccc2c1C(=O)c1c(O)c3c(c(O)c1C2=O)C[C@@](O)(C(=O)CO)C[C@@H]3O[C@H]1C[C@H](N)[C@H](O)[C@H](C)O1 [DOX, Doxorubicin]
cell death in uveal melanoma cells [1]: induce cell death | increase of caspase-3 activation (caspase-3 [2]): 12 fold | increase of caspase-3 activation (caspase-3 [3]): 35 fold | reduction of tumor growth rate (HepG2 tumors; DOX 55 mg/kg IP twice a week, tumors infected with vACE-NT, light emission day 42 vs day 14): 45% | effect on tumors (HepG2 tumors; DOX 75 mg/kg IP twice a week, even in vACE-NT infected tumors): almost completely eradicate the tumors | growth rate of tumors on addition of DOX (HepG2 tumors; all tumors (vACE-NT, vACE-CREB, vACE-X3 infected), DOX 55 mg/kg): reduced the growth rate of all tumors
